Results from US20200113910A1, “TRIAZINETRIONE DERIVATIVES AND THEIR USE AS MODULATORS OF NEUROTROPHIN RECEPTOR AND RECEPTOR TYROSINE KINASES” (ALZECURE PHARMA AB, priority 2016, published 2020).

Columns and labels:
TrkA = target: T1, TrkA (Homo sapiens, UniProt P04629); experiment: Enzyme Fragment Complementation cell-based assay, TrkA; details: U2OS-cells over-expressing TrkA; ligand NGF 10 ng/mL
T1 construct: expressed in transfected cells; host or cells: U2OS
Description: (§1) A high throughput cell-based screen has been used to identify positive modulators of TrkA, TrkB and TrkC. The screen involves the use of cell-based assay overexpressing TrkA, TrkB or TrkC. The purpose of the assay is to identify compounds that modulate neurotrophin signalling (Forsell et al 2012). The assay can be used in inhibitor mode using a high concentration of ligand, in modulator mode using an intermediate concentration and in agonist mode using a low concentration of ligand.
(§2) The assay uses Enzyme Fragment Complementation (EFC) technique, which is a proximity-based assay. Briefly, cells used in this assay over-express two fusion proteins, i.e. the receptor, which can be either one of TrkA, TrkB, TrkC, IGF1R or FGFR1, fused to a small peptide of 8-galactosidase and an adaptor protein, i.e. SHC1 (or any other Trk-adaptor protein) fused to the major part of 8-galactosidase. […] The proximity between the small activating peptide on the receptor and the major part of 8-galactosidase on the adaptor protein leads to an active 8-galactosidase enzyme. The activation of the receptor is quantified by measuring the amount of active 8-galactosidase by its conversion of a non-luminescent substrate into a luminescent product.
(§3) U2OS-cells, over-expressing TrkA or TrkB or TrkC, are plated in 96- or 384-well plates and incubated overnight. Alternatively, cryopreserved HEK293-cells expressing IGFR1 or cryopreserved U2OS-cells expressing FGFR1 were plated in 96- or 384-well plates. On the following day, test compound was pre-mixed with ligand (NGF, BDNF, NT-3, IGF-1 or basic fibroblast growth factor (bFGF(FGF-2))) and the ligand-compound mixture is then added to the cells to yield a final ligand concentration of typically 10 ng/mL (or as indicated in FIGS. 3 and 4). After 3 hours of incubation at room temperature, the incubation is stopped by the addition of a β-galactosidase substrate mixture containing detergents. The substrate mixture is incubated for 60 minutes at ambient temperature. The luminescence is thereafter read by the use of a plate reader.
(§4) The potency is expressed as EC50 (pM) and the efficacy as % stimulation over 10 ng/mL of ligand . The ligands used was: NGF (for TrkA assay), BDNF (for TrkB assay), NT-3 (for TrkC assay) bFGF (for FGFR1 assay), IGF-1 (for IGFR1 assay), respectively.

TrkB = target: T2, TrkB (Homo sapiens, UniProt Q16620); experiment: Enzyme Fragment Complementation cell-based assay, TrkB; details: for TrkB efficacy, % stimulation over 10 ng/mL of ligand: U2OS-cells over-expressing TrkB, ligand BDNF 10 ng/mL
T2 construct: expressed in transfected cells; host or cells: U2OS
Description: as §1, §2, §3, §4

TrkC = target: T3, TrkC (Homo sapiens, UniProt Q16288); experiment: Enzyme Fragment Complementation cell-based assay, TrkC; details: U2OS-cells over-expressing TrkC; ligand NT-3 10 ng/mL
T3 construct: expressed in transfected cells; host or cells: U2OS
Description: as §1, §2, §3, §4

FGFR1 = target: T4, FGFR1 (Homo sapiens, UniProt P11362); experiment: Enzyme Fragment Complementation cell-based assay, FGFR1; details: U2OS-cells expressing FGFR1; ligand bFGF 10 ng/mL
T4 construct: expressed in transfected cells; host or cells: U2OS (cryopreserved)
Description: as §2, §3, §4

IGF1R = target: T5, IGF1R (Homo sapiens, UniProt P08069); experiment: Enzyme Fragment Complementation cell-based assay, IGF1R; details: HEK293-cells expressing IGFR1; ligand IGF-1 10 ng/mL
T5 construct: expressed in transfected cells; host or cells: HEK293 (cryopreserved)
Description: as §2, §3, §4

C57/BI6 mice [1] = experiment: Passive avoidance task, scopolamine-treated mice (Example 1); format: in vivo; details: 20 mg/kg i.p. once per day for 4 days; scopolamine 0.3 mg/kg s.c.; FIG. 1
Method: (§5) Passive avoidance (PA) is an aversive learning task based on classical (Pavlovian) fear conditioning that allows for analysis of both facilitation and impairment of memory function by adjusting the unconditioned stimulus, i.e. the electrical foot shock. Commonly a cognitive-impairing agent is administered to the animals to mimic the neurochemical disturbances present in various cognitive disorders e.g. cholinergic (scopolamine) and glutamatergic (MK-801) deficits.
(§6) Prior to testing, the animals are brought to the experimental room where they were allowed to habituate for 60 min. The test is conducted using a modified shuttle box with two communicating compartments of equal size with a small sliding door built into the separating wall and a stainless steel bar floor. One of the compartments is not illuminated and thus black whereas the other compartment (the light one) is illuminated by an electric bulb, installed on the top of a plexiglass cover. The PA training is conducted in a single session. […] Latency to cross over into the dark compartment (training latency) is recorded. […] The latency to cross over into the dark compartment with all four feet is measured (retention latency) as well as time in bright compartment and a number of other relevant parameters (e.g. number of visits in the dark compartment). […]

[2] = tested on: ephrin type-B receptor 2 (EphB2); details: Suzuki et al., FEBS Open Bio 2016; cited from earlier work
[3] = tested on: cellular prion protein (PrP^C); details: Suzuki et al., FEBS Open Bio 2016; cited from earlier work
C57/BI6 mice [4] = experiment: Passive avoidance task, MK-801-treated mice (Example 2); format: in vivo; details: different doses i.p. once per day for 4 days; MK-801 0.3 mg/kg s.c.; FIG. 2
Method: as §5, §6

[5] = FIG. 3, cells stimulated with or without BDNF

T2 sequence (Q16620 32-822): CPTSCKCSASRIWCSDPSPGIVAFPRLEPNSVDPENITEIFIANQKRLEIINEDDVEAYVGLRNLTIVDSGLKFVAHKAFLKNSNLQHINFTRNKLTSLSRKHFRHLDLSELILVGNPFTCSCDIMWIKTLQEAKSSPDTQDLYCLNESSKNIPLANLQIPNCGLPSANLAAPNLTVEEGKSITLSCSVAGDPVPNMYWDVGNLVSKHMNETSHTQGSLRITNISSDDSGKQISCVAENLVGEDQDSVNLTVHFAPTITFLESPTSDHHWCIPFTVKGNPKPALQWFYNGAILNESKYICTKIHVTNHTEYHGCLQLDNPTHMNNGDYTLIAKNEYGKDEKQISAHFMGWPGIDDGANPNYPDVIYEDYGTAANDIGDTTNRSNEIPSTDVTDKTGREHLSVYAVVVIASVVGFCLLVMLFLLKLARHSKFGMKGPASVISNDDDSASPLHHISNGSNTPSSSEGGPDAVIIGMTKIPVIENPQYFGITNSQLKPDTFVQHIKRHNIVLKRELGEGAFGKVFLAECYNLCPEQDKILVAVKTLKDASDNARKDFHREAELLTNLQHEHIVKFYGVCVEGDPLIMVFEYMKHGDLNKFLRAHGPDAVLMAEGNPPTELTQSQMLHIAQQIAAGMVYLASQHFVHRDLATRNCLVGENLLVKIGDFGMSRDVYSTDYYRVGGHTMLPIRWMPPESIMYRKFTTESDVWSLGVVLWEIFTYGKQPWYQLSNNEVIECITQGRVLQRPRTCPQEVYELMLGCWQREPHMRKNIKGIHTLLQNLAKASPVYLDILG
T3 sequence (Q16288 32-839): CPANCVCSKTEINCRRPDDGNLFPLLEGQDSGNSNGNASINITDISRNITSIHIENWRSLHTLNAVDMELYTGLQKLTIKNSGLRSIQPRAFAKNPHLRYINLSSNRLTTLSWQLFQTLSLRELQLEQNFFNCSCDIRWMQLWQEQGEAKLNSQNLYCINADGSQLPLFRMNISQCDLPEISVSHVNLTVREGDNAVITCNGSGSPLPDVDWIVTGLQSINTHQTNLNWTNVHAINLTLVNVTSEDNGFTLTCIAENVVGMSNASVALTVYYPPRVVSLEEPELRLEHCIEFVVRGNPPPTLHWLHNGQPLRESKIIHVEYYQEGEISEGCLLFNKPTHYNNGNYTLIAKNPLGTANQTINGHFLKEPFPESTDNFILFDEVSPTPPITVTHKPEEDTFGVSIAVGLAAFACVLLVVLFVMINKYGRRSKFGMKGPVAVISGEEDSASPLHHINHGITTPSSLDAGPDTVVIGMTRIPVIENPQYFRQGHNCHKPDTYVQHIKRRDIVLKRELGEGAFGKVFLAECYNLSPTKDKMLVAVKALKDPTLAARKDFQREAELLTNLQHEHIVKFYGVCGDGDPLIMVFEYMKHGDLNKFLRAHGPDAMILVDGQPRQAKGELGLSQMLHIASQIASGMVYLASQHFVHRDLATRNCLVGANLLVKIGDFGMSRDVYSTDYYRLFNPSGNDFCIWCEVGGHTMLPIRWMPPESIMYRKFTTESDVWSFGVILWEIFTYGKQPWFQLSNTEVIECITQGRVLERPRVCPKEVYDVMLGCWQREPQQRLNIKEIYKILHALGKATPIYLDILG
T1 sequence (P04629 33-796): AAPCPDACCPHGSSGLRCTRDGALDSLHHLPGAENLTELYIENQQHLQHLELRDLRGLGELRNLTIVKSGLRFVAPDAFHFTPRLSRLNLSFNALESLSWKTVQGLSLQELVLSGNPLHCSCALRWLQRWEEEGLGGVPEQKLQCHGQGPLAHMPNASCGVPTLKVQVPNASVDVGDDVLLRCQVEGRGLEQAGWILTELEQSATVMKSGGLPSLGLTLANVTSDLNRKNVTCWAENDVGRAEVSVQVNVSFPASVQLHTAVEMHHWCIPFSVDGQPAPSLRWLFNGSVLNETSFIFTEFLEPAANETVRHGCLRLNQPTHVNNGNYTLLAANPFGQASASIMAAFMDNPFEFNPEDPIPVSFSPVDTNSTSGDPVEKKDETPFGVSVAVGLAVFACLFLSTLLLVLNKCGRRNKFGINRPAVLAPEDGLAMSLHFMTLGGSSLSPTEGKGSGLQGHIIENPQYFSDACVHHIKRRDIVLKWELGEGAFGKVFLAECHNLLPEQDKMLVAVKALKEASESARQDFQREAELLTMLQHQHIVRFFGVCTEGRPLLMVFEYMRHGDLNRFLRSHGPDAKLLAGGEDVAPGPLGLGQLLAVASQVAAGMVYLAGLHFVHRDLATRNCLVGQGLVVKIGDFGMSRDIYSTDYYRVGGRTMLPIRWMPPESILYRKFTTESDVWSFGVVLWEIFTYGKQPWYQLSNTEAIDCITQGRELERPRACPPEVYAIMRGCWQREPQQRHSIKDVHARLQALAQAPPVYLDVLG
T4 sequence (P11362 22-822): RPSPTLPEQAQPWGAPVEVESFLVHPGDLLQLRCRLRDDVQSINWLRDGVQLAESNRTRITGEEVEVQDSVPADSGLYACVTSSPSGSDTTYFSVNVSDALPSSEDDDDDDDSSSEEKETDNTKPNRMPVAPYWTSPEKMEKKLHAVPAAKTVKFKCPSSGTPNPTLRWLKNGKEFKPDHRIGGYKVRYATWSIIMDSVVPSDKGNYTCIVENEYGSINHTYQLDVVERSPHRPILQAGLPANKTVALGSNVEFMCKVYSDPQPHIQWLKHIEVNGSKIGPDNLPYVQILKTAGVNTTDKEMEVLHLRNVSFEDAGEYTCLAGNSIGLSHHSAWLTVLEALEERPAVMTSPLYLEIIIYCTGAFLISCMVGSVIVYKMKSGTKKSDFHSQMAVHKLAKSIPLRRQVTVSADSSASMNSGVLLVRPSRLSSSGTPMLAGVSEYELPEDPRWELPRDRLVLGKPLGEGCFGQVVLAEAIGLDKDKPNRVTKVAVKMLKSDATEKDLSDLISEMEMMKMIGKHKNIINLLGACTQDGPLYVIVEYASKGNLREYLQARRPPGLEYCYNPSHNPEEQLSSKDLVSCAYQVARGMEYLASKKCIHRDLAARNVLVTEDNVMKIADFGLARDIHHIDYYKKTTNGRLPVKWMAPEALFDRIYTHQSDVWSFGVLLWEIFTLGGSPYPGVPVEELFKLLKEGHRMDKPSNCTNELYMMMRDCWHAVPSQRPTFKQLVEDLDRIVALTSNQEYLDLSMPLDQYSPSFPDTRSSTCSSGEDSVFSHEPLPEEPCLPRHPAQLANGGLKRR
T5 sequence (P08069 31-736 limits assumed): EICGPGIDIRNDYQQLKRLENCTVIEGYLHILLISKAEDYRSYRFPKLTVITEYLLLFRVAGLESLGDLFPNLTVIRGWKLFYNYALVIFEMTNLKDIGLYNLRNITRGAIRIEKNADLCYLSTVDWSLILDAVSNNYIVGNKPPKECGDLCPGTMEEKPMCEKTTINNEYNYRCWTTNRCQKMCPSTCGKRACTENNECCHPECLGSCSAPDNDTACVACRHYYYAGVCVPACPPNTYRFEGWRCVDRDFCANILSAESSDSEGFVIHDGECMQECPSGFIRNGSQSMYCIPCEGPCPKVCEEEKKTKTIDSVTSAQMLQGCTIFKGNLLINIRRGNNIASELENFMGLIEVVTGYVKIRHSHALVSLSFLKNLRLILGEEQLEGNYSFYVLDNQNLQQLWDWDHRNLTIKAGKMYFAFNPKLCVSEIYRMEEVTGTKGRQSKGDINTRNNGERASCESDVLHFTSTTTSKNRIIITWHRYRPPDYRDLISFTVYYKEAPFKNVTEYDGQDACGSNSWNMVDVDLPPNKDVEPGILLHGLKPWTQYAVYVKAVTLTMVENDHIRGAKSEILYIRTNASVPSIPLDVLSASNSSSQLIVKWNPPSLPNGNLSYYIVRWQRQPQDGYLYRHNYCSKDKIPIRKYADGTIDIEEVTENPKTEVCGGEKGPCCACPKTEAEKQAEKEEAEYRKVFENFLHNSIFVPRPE
T5 sequence (P08069 741-1367 limits assumed): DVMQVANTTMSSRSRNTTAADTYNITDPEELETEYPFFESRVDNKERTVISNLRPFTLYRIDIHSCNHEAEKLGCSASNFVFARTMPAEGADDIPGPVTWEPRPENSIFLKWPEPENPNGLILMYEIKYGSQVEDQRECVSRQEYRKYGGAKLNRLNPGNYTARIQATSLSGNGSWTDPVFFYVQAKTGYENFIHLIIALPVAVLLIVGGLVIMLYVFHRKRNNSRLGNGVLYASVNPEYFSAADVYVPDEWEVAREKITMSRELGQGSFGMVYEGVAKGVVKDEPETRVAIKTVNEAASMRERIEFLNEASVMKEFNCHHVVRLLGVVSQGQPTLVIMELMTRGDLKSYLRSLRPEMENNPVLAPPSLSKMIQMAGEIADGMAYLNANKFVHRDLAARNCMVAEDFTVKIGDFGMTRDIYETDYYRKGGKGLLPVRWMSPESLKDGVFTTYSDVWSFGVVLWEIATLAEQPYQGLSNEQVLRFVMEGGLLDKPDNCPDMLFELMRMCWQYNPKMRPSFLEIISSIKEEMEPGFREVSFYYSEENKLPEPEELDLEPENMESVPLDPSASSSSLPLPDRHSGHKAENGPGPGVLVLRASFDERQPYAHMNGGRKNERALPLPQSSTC

## Cc1cc(-n2c(=O)[nH]c(=O)n(C)c2=O)ccc1Oc1ccc(SC(F)(F)F)cc1 [Compound 1, 1-methyl-3-(3-methyl-4-{4-[(trifluoromethyl)sulfanyl]phenoxy}phenyl)-1,3,5-triazinane-2,4,6-trione]
TrkA
  TrkA efficacy, % stimulation over 10 ng/mL of ligand: 109%
TrkB; [5]
  decrease of activity at the two highest concentrations tested, TrkB expressing cells: significantly decreases
  dose-response curve with BDNF as ligand in TrkB expressing cells: no clear dose-response curve
TrkB
  TrkB efficacy, % stimulation over 10 ng/mL of ligand: 124%
TrkC
  TrkC efficacy, % stimulation over 10 ng/mL of ligand: 87%
FGFR1
  FGFR1 efficacy, % stimulation over 10 ng/mL of ligand: 73%
IGF1R
  IGF1R efficacy, % stimulation over 10 ng/mL of ligand: 83%
C57/BI6 mice [1]
  retention latency in passive avoidance task (cognitive function): increased retention latency
[2]
  inhibition of binding of β-amyloid oligomers to EphB2: 30%
[3]
  inhibitory activity at the cellular prion protein (PrP^C): lack of similar inhibitory activity

## Cc1cc(-n2c(=O)[nH]c(=O)n(C)c2=O)ccc1Oc1ccc([S+]([O-])C(F)(F)F)cc1 (centres unmarked) [Compound 3, 1-methyl-3-[3-methyl-4-(4-trifluoromethanesulfinylphenoxy)phenyl]-1,3,5-triazinane-2,4,6-trione]
TrkA
  TrkA efficacy, % stimulation over 10 ng/mL of ligand: 143%
TrkB; [5]
  decrease of activity at the two highest concentrations tested, TrkB expressing cells: not observed
TrkB
  TrkB efficacy, % stimulation over 10 ng/mL of ligand: 196%
TrkC
  TrkC efficacy, % stimulation over 10 ng/mL of ligand: 74%
FGFR1
  FGFR1 efficacy, % stimulation over 10 ng/mL of ligand: 102%
IGF1R
  IGF1R efficacy, % stimulation over 10 ng/mL of ligand: 109%

## Cc1cc(-n2c(=O)[nH]c(=O)n(-c3ccccc3)c2=O)ccc1Oc1ccc([S+]([O-])C(F)(F)F)cc1 (centres unmarked) [Compound 4, 1-[3-methyl-4-(4-trifluoromethanesulfinylphenoxy)phenyl]-3-phenyl-1,3,5-triazinane-2,4,6-trione]
TrkA
  TrkA efficacy, % stimulation over 10 ng/mL of ligand: 128%
TrkB
  TrkB efficacy, % stimulation over 10 ng/mL of ligand: 217%
TrkC
  TrkC efficacy, % stimulation over 10 ng/mL of ligand: 69%

## Cc1cc(-n2c(=O)[nH]c(=O)n(C)c2=O)ccc1Oc1ccc(S(=O)(=O)C(F)(F)F)cc1 [Compound 2, 1-methyl-3-[3-methyl-4-(4-trifluoromethanesulfonylphenoxy)phenyl]-1,3,5-triazinane-2,4,6-trione]
TrkA
  TrkA efficacy, % stimulation over 10 ng/mL of ligand: 138%
TrkB; [5]
  decrease of activity at the two highest concentrations tested, TrkB expressing cells: not observed
TrkB
  TrkB efficacy, % stimulation over 10 ng/mL of ligand: 232%
TrkC
  TrkC efficacy, % stimulation over 10 ng/mL of ligand: 70%
FGFR1
  FGFR1 efficacy, % stimulation over 10 ng/mL of ligand: 43%
IGF1R
  IGF1R efficacy, % stimulation over 10 ng/mL of ligand: 25%
C57/BI6 mice [4]
  total time spent in bright compartment in passive avoidance task (cognitive function): increased time spent in the bright area

## Cc1cc(-n2c(=O)[nH]c(=O)n(-c3ccccc3)c2=O)ccc1Oc1ccc(SC(F)(F)F)cc1 [Compound 5, 1-(3-methyl-4-{4-[(trifluoromethyl)sulfanyl]phenoxy}phenyl)-3-phenyl-1,3,5-triazinane-2,4,6-trione]
TrkA
  TrkA efficacy, % stimulation over 10 ng/mL of ligand: 112%
TrkB
  TrkB efficacy, % stimulation over 10 ng/mL of ligand: 210%
TrkC
  TrkC efficacy, % stimulation over 10 ng/mL of ligand: 84%

## Cc1cc(-n2c(=O)[nH]c(=O)n(-c3ccccc3)c2=O)ccc1Oc1ccc(S(=O)(=O)C(F)(F)F)cc1 [Compound 6, 1-[-3-methyl-4-(4-trifluoromethanesulfonylphenoxy)phenyl]-3-phenyl-1,3,5-triazinane-2,4,6-trione]
TrkA
  TrkA efficacy, % stimulation over 10 ng/mL of ligand: 147%
TrkB
  TrkB efficacy, % stimulation over 10 ng/mL of ligand: 300%
TrkC
  TrkC efficacy, % stimulation over 10 ng/mL of ligand: 124%
